Data as given in patent publication US10508120B2, “TYK2 inhibitors and uses thereof” (Nimbus Lakshmi, Inc., priority 2017, dated 2019).
Read-outs that look alike come from different tables or passages of the source.

Assays:
Tyk2 kinase domain (DH1) = Tyk2 kinase domain (DH1) (Homo sapiens (Human), UniProt P29597); test: Tyk2 Radioactive Kinase Assay; assay type: biochemical; conditions: read-out: Tyk2 JH1% Inhibition @ 10 μM
In short: (§1)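 Each kinase domain is incubated with test compound at 10 μM. Activity is then measured radiometrically and expressed as percent inhibition relative to uninhibited enzyme.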

JAK2 kinase domain (JH1) = JAK2 kinase domain (JH1) (Homo sapiens (Human), UniProt O60674); test: JAK2 Radioactive Kinase Assay; assay type: biochemical; conditions: read-out: JAK2 JH1% Inhibition @ 10 μM
In short: as §1

[1] = target: human TYK2 (JH2domain-pseudokinase) (Homo sapiens (Human), UniProt P29597); test: TYK2 JH2 Domain Binding Assay (KINOMEscan)
In short: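 Pseudokinase domain binding was measured by qPCR of tagged, bead-retained kinase after 1 h room-temperature competition, with 0.9% DMSO and compound up to 30,000 nM in 3-fold steps. Hill-equation Kd, duplicate.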

[2] = target: Tyk2/JAK2 (heterodimeric complex) (Homo sapiens (Human), UniProt P29597); test: IL-12 Induced pSTAT4 in Human PBMC; assay type: cell-based; conditions: 1.7 ng/mL IL-12
Source text: The IL-12 Induced pSTAT4 assay evaluates the inhibition of IL-12 induced STAT4 phophorylation mediated by Tyk2/JAK2 (heterodimeric complex).

[3] = target: JAK2/JAK2 homdimeric complex (Homo sapiens (Human), UniProt O60674); test: GM-CSF Induced pSTAT5 in Human PBMC; assay type: cell-based; conditions: GM-CSF 5 ng/mL for 20 minutes, pSTAT5 by MSD, read-out: PBMC_GMCSF_pSTAT5 IC50
Sequence of JAK2/JAK2 homdimeric complex (O60674 whole entry): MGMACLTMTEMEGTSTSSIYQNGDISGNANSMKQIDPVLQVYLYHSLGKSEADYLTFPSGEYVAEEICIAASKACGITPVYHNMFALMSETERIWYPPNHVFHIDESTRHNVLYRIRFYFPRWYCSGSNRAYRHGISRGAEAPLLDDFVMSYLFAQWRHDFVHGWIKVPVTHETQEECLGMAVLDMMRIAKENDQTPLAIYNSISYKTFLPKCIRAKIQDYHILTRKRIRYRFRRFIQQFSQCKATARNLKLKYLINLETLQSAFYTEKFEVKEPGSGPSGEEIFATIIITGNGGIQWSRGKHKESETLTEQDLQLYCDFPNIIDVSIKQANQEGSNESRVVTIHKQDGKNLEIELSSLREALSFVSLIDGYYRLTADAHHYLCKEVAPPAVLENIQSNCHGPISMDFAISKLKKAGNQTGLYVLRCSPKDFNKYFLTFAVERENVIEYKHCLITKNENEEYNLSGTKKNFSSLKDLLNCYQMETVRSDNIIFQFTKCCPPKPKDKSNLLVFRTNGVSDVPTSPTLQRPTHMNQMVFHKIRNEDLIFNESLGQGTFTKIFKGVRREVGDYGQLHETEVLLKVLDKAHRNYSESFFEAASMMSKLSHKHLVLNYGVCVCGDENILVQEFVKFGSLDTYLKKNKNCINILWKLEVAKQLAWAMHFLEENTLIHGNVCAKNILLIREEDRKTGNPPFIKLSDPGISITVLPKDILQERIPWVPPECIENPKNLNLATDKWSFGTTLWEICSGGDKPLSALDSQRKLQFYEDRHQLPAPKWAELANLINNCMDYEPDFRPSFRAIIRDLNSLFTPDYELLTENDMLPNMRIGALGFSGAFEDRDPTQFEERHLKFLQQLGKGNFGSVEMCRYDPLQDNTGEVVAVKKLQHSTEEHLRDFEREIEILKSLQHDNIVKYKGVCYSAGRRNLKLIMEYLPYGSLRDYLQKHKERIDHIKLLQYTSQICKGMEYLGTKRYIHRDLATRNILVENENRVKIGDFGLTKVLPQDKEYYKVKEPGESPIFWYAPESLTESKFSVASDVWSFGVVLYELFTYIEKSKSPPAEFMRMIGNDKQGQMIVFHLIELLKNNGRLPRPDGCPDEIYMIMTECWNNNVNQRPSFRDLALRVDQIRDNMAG
Sequence of JAK2/JAK2 homdimeric complex (P32927 17-897 partner): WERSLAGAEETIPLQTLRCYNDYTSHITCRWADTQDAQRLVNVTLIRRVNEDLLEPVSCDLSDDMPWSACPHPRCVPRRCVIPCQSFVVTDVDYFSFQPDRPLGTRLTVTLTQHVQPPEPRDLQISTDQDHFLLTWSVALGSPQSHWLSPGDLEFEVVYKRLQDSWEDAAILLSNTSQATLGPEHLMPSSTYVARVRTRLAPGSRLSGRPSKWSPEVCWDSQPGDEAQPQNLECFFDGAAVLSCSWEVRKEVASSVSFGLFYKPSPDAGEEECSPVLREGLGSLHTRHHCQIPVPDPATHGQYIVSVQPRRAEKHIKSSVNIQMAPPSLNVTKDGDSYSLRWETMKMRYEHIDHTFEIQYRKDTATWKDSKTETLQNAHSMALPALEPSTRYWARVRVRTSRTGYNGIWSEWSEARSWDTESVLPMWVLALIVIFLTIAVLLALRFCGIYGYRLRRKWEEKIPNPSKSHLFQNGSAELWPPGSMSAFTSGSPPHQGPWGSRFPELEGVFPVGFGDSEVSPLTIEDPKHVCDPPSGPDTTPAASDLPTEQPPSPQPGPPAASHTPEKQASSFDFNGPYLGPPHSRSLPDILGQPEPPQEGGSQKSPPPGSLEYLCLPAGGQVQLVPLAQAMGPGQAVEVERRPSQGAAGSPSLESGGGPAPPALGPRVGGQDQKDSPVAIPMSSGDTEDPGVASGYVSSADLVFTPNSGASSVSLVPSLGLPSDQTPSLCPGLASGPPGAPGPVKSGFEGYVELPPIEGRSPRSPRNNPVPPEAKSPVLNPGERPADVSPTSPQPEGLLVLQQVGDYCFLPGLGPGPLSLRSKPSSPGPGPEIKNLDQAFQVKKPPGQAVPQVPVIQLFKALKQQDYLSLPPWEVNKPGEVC

Sequence of Tyk2 kinase domain (DH1) (P29597 897-1176): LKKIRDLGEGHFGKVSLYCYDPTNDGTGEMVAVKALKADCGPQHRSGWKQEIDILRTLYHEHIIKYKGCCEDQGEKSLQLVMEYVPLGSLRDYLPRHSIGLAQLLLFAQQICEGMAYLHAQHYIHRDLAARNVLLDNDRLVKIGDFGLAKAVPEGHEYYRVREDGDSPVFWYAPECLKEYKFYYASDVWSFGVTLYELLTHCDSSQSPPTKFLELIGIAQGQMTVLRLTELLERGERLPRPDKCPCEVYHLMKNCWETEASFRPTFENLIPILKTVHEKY
Sequence of JAK2 kinase domain (JH1) (O60674 849-1124): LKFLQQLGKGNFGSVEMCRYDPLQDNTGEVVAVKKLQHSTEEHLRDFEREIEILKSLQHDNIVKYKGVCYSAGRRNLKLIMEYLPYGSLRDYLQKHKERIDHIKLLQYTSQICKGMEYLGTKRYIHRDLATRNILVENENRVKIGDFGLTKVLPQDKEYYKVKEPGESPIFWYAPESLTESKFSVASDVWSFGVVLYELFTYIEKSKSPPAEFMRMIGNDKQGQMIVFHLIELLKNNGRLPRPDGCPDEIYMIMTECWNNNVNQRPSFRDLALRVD
Sequence of Tyk2/JAK2 (heterodimeric complex) (P29597 whole entry, other chains not shown): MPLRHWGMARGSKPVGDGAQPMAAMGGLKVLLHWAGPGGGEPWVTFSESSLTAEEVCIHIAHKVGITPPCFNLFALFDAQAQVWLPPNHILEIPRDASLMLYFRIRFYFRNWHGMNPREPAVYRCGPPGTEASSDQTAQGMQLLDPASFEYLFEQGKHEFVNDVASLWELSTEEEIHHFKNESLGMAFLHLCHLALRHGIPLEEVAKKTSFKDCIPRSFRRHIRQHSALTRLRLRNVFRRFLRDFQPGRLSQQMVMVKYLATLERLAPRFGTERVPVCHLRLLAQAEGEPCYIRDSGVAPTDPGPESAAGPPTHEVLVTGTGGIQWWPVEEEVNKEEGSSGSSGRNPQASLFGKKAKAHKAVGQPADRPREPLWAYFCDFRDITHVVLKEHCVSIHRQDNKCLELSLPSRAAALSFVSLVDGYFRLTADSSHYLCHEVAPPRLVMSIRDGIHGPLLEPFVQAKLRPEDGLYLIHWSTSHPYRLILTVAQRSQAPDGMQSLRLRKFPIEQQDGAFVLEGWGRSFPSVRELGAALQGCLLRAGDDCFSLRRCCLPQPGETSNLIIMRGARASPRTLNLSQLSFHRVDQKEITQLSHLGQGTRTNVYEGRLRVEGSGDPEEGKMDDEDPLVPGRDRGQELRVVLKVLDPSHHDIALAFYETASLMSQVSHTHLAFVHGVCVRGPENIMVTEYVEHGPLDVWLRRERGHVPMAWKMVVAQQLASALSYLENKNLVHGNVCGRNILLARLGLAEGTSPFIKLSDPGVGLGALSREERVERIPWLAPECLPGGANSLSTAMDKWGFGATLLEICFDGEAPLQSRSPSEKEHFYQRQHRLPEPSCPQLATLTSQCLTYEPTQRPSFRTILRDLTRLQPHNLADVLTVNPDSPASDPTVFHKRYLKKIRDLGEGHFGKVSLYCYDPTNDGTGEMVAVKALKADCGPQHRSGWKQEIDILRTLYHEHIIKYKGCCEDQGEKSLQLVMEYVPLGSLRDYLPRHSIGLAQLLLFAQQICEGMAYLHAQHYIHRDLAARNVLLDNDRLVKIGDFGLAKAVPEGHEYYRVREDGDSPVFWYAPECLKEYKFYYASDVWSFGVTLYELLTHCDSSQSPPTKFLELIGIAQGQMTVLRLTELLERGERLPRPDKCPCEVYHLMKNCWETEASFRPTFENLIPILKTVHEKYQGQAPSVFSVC
Sequence of human TYK2 (JH2domain-pseudokinase) (P29597 556-888): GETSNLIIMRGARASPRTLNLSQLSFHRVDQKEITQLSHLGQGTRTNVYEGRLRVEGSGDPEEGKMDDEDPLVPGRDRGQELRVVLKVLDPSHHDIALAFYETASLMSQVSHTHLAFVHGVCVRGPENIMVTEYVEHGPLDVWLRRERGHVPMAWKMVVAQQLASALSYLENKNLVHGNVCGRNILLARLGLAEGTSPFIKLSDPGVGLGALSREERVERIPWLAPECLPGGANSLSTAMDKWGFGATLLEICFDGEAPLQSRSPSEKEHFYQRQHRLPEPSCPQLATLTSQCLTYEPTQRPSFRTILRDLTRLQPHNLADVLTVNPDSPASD

SMILES	inhibition at 10 µM (Tyk2 kinase domain (DH1); compound at 10 μM, ATP 10 μM) [%]	inhibition at 10 µM (JAK2 kinase domain (JH1); compound at 10 μM, ATP 10 μM) [%]	Kd [1] [nM]	IC50 [2] [nM]	inhibition at 10 µM (Tyk2 kinase domain (DH1); 10 μM compound, 10 μM ATP) [%]	IC50 [3] [nM]	inhibition at 10 µM (JAK2 kinase domain (JH1); 10 μM compound, 10 μM ATP) [%]
CNc1cc(Nc2cccn(-c3ccc(F)cc3)c2=O)nc2c(C(N)=O)cnn12 [I-9]	< 50	< 50	< 0.2	100 to 500	–	–	–
CNc1cc(Nc2cccn([C@@H]3CCCOC3)c2=O)nc2c(C(=O)NC3CC3)cnn12 [I-351]	< 50	< 50	< 0.2	< 100	–	–	–
CNc1cc(Nc2cccn([C@H]3CC[C@@](C)(O)CC3)c2=O)nc2c(C(=O)N[C@H]3C[C@H]3F)cnn12 [I-370]	< 50	< 50	< 0.2	< 100	–	–	–
CNc1cc(Nc2cccn([C@H]3CC[C@](C)(O)CC3)c2=O)nc2c(C(=O)NC3CC3)cnn12 [I-371]	< 50	< 50	< 0.2	100 to 500	–	–	–
CNc1cc(Nc2cccn([C@H]3CC[C@](C)(O)CC3)c2=O)nc2c(C(=O)N[C@H]3C[C@H]3F)cnn12 [I-372]	< 50	< 50	< 0.2	< 100	–	–	–
CNc1cc(Nc2cccn(-c3nn(C)cc3C)c2=O)nc2c(C(=O)NC3CC3)cnn12 [I-404]	< 50	< 50	0.2 to 1	> 1000	–	–	–
CNc1cc(Nc2cccn(-c3nn(C)cc3C)c2=O)nc2c(C(=O)N[C@H]3C[C@H]3F)cnn12 [I-405]	< 50	< 50	0.2 to 1	100 to 500	–	–	–
CNc1cc(Nc2cccn([C@@H]3CCCN(CCF)C3)c2=O)nc2c(C(=O)N[C@@H]3CC[C@H]3OC)cnn12 [I-1095]	–	–	< 0.2	–	< 50	> 50000	< 50
CNc1cc(Nc2cccn([C@@H]3CCN(CCF)C3)c2=O)nc2c(C(=O)NC3CCC3OC)cnn12 (stereo partly drawn) [I-1096, 5-((1-((R)-1-(2-fluoroethyl)pyrrolidin-3-yl)-2-oxo-1,2-dihydropyridin-3-yl)amino)-N-(2-methoxycyclobutyl)-7-(methylamino)pyrazolo[1,5-a]pyrimidine-3-carboxamide]	–	–	< 0.2	–	< 50	> 50000	< 50
CNc1cc(Nc2cccn([C@H]3CCCC[C@H]3OC)c2=O)nc2c(C(=O)N[C@H]3CC[C@@H]3OC)cnn12 [I-1097]	–	–	< 0.2	–	< 50	> 50000	< 50
CNc1cc(Nc2cccn([C@H]3CCC[C@H](OC)C3)c2=O)nc2c(C(=O)N[C@H]3CC[C@@H]3OC)cnn12 [I-1098]	–	–	< 0.2	–	< 50	> 50000	< 50
CNc1cc(Nc2cccn([C@@H]3CCC[C@@H](OC)C3)c2=O)nc2c(C(=O)N[C@H]3CC[C@@H]3OC)cnn12 [I-1099]	–	–	< 0.2	–	< 50	> 50000	< 50
CNc1cc(Nc2cccn([C@H]3CCC[C@H]3O)c2=O)nc2c(C(=O)N[C@H]3CC[C@@H]3OC)cnn12 [I-1101]	–	–	< 0.2	–	< 50	> 50000	< 50
CNc1cc(Nc2cccn3cnnc23)nc2c(C(=O)N[C@H]3CC[C@@H]3OC)cnn12 [I-1102]	–	–	< 0.2	–	< 50	> 2500	< 50
CNc1cc(Nc2cccn([C@H]3CC[C@](C)(OC)CC3)c2=O)nc2c(C(=O)N[C@H]3CC[C@@H]3OC)cnn12 [I-1105]	–	–	< 0.2	–	< 50	> 50000	< 50
CNc1cc(Nc2cccn([C@H]3CC[C@](C)(OC)CC3)c2=O)nc2c(C(=O)N[C@@H]3CC[C@H]3O)cnn12 [I-1107]	–	–	< 0.2	–	< 50	> 2500	< 50
CNc1cc(Nc2cccn3ccnc23)nc2c(C(=O)N[C@@H]3CC[C@H]3OC)cnn12 [I-1133]	–	–	1 to 10	< 100	–	–	–
CNc1cc(-c2cn([C@H]3CCCOC3)c3ncccc23)nc2c(C(=O)N[C@H]3CC[C@@H]3OC)cnn12 [I-1283]	–	–	1 to 10	< 100	–	–	–
CNc1cc(Nc2cccn(-c3ccccn3)c2=O)nc2c(C(=O)N[C@@H]3C[C@H]3OC)cnn12 [I-1286]	–	–	< 0.2	< 100	–	–	–
CNc1cc(Nc2cccn([C@H]3CCC[C@@H](O)C3)c2=O)nc2c(C(=O)N[C@H]3CC[C@@H]3OC)cnn12 [I-1296]	–	–	< 0.2	< 100	–	–	–
CNc1cc(-c2cn(CCCO)c3ncccc23)nc2c(C(=O)N[C@@H]3CC[C@H]3OC)cnn12 [I-1299]	–	–	< 0.2	< 100	–	–	–
CNc1cc(Nc2cccn([C@@H]3CC[C@H]3O)c2=O)nc2c(C(=O)N[C@@H]3CC[C@H]3OC)cnn12 [I-1309]	–	–	< 0.2	< 100	–	–	–
CNc1cc(-c2cn(C3CCOCC3)c3ncc(F)cc23)nc2c(C(=O)N[C@H]3CC[C@@H]3O)cnn12 [I-1314]	–	–	< 0.2	< 100	–	–	–
CNc1cc(Nc2cccn(-c3nn(C)cc3F)c2=O)nc2c(C(=O)N[C@@H]3C[C@@H]3F)cnn12 [I-1321]	–	–	< 0.2	< 100	–	–	–

SMILES	inhibition at 10 µM (Tyk2 kinase domain (DH1); compound at 10 μM, ATP 10 μM) [%]	inhibition at 10 µM (JAK2 kinase domain (JH1); compound at 10 μM, ATP 10 μM) [%]	Kd [1] [nM]	IC50 [2] [nM]	inhibition at 10 µM (Tyk2 kinase domain (DH1); 10 μM compound, 10 μM ATP) [%]	IC50 [3] [nM]	inhibition at 10 µM (JAK2 kinase domain (JH1); 10 μM compound, 10 μM ATP) [%]
CNC(=O)c1occc1Nc1cc(NC)n2ncc(C(=O)N[C@H]3CC[C@@H]3OC)c2n1 [I-1323]	–	–	1 to 10	< 100	–	–	–
CNc1cc(Nc2cc3cccnc3n2C2CC2)nc2c(C(=O)N[C@H]3CC[C@@H]3OC)cnn12 [I-1325]	–	–	< 0.2	< 100	–	–	–
CNc1cc(-c2cn(C3CCOCC3)c3ncccc23)nc2c(C(=O)N[C@@H]3CC[C@H]3OC)cnn12 [I-1328]	–	–	0.2 to 1	< 100	–	–	–
CNc1cc(Nc2cccn([C@@H]3CCC[C@@H](OC)C3)c2=O)nc2c(C(=O)N[C@H]3CC[C@@H]3OC)cnn12 [I-1331]	–	–	1 to 10	< 100	–	–	–
CNc1cc(Nc2cccn([C@@H]3CCN(CCF)C3)c2=O)nc2c(C(=O)N[C@@H]3CC[C@H]3OC)cnn12 [I-1333]	–	–	1 to 10	< 100	–	–	–
CNc1cc(Nc2cccn3cnnc23)nc2c(C(=O)N[C@H]3CC[C@@H]3OC)cnn12 [I-1343]	–	–	–	< 100	–	–	–
CNc1cc(Nc2cccn([C@@H]3CC[C@@H]3O)c2=O)nc2c(C(=O)N[C@@H]3CC[C@H]3OC)cnn12 [I-1350]	–	–	< 0.2	< 100	–	–	–
CNc1cc(-c2cn([C@H]3CCN(CCF)C3)c3ncccc23)nc2c(C(=O)N[C@@H]3C[C@@H]3F)cnn12 [I-1362]	–	–	0.2 to 1	< 100	–	–	–
CNc1cc(-c2cn([C@@H]3CCCOC3)c3ncccc23)nc2c(C(=O)N[C@H]3CC[C@@H]3OC)cnn12 [I-1364]	–	–	0.2 to 1	< 100	–	–	–
CNc1cc(-c2cn([C@H]3CCCOC3)c3ncccc23)nc2c(C(=O)N[C@H]3CC[C@@H]3OC)cnn12 [I-1365]	–	–	< 0.2	< 100	–	–	–
CNc1cc(-c2cn([C@@H]3CCN(CCF)C3)c3ncccc23)nc2c(C(=O)N[C@@H]3C[C@@H]3F)cnn12 [I-1366]	–	–	1 to 10	< 100	–	–	–
CNc1cc(Nc2cccn(-c3cnn(C)c3F)c2=O)nc2c(C(=O)N[C@H]3CC[C@@H]3OC)cnn12 [I-1369]	–	–	–	< 100	–	–	–
CNc1cc(Nc2cccn([C@H]3CCC[C@H]3O)c2=O)nc2c(C(=O)N[C@H]3CC[C@@H]3OC)cnn12 [I-1373]	–	–	–	< 100	–	–	–
CNc1cc(Nc2cccn([C@H]3CCC[C@H](OC)C3)c2=O)nc2c(C(=O)N[C@@H]3CC[C@H]3OC)cnn12 [I-1374]	–	–	0.2 to 1	< 100	–	–	–
CNc1cc(Nc2cccn([C@H]3CCCC[C@H]3OC)c2=O)nc2c(C(=O)N[C@H]3CC[C@@H]3OC)cnn12 [I-1377]	–	–	–	< 100	–	–	–
CNc1cc(Nc2cccn([C@H]3CCN(CCF)C3)c2=O)nc2c(C(=O)N[C@H]3CC[C@@H]3OC)cnn12 [I-1381]	–	–	0.2 to 1	< 100	–	–	–
CNc1cc(Nc2cccn([C@@H]3CCCN(CCF)C3)c2=O)nc2c(C(=O)N[C@H]3CC[C@@H]3OC)cnn12 [I-1382]	–	–	< 0.2	< 100	–	–	–
CNc1cc(Nc2cccn([C@H]3CC[C@@H]3O)c2=O)nc2c(C(=O)N[C@H]3CC[C@@H]3OC)cnn12 [I-1385]	–	–	0.2 to 1	< 100	–	–	–
CNc1cc(-c2cn(C(C)C)c3ncc(F)cc23)nc2c(C(=O)N[C@H]3CC[C@H]3O)cnn12 [I-1387]	–	–	1 to 10	< 100	–	–	–
CNc1cc(-c2cn(CCCO)c3ncccc23)nc2c(C(=O)N[C@H]3CC[C@@H]3OC)cnn12 [I-1388]	–	–	0.2 to 1	< 100	–	–	–
CNc1cc(Nc2cccn(C3CC(F)(F)C3)c2=O)nc2c(C(=O)N[C@H]3CC[C@@H]3OC)cnn12 [I-1389]	–	–	0.2 to 1	< 100	–	–	–
CNc1cc(Nc2cccn([C@H]3CCC[C@H](O)C3)c2=O)nc2c(C(=O)N[C@@H]3CC[C@H]3OC)cnn12 [I-1395]	–	–	0.2 to 1	< 100	–	–	–
CNc1cc(Nc2cccn([C@@H]3CC[C@@H]3O)c2=O)nc2c(C(=O)N[C@H]3CC[C@@H]3OC)cnn12 [I-1411]	–	–	1 to 10	< 100	–	–	–
